Results taken from US11142515B2, “Pyrazolyl-ureas as kinase inhibitors” (RESPIVERT LIMITED, priority 2014, dated 2021).

Tests used:
[1] = biological target: T1, p38 MAPKα isoform (MAPK14) (Homo sapiens, UniProt Q16539); test: p38 MAPKα enzyme inhibition (Z-LYTE FRET); assay type: biochemical; settings: Table 2B, unit inferred; read-out: p38 MAPKα (Enzyme Profile)
T1 construct: purchased Life Technologies
Procedure: (§1) The enzyme inhibitory activities of compounds disclosed herein were determined by FRET using synthetic peptides labelled with both donor and acceptor fluorophores (Z-LYTE, Life Technologies, Paisley, UK).
The inhibitory activities of compounds of the invention against the p38 MAPKα isoform (MAPK14: Life Technologies), were evaluated indirectly by determining the level of activation/phosphorylation of the target peptide of the p38 MAPKα down-stream molecule, MAPKAP-K2. The enzyme (40 ng/mL, 2.5 μL) was incubated with the test compound (2.5 μL of either 40 μg/mL, 12 μg/mL, 4 μg/mL, 1.2 μg/mL, 0.4 μg/mL, 0.12 μg/mL, 0.04 μg/mL, 0.012 μg/mL, 0.004 μg/mL or 0.0012 μg/mL) for 2 h at RT. […] Development reagent (protease, 5 μL) was added for 1 h prior to detection in a fluorescence microplate reader (EnVision, Perkin Elmer, Waltham, Mass., USA).
(§2) In all cases, the site-specific protease cleaves non-phosphorylated peptide only and eliminates the FRET signal. Phosphorylation levels of each reaction were calculated using the ratio of coumarin emission (donor) over fluorescein emission (acceptor), for which low ratios indicate high phosphorylation and high ratios indicate low phosphorylation levels.

p38MAPKγ (MAPK12) = biological target: T2, p38MAPKγ (MAPK12) (Homo sapiens, UniProt P53778); test: p38 MAPKγ enzyme inhibition (Z-LYTE FRET); assay type: biochemical; settings: Table 2B, unit inferred; read-out: p38 MAPKγ (Enzyme Profile)
T2 construct: purchased Life Technologies
T2 sequence (P53778 1-367): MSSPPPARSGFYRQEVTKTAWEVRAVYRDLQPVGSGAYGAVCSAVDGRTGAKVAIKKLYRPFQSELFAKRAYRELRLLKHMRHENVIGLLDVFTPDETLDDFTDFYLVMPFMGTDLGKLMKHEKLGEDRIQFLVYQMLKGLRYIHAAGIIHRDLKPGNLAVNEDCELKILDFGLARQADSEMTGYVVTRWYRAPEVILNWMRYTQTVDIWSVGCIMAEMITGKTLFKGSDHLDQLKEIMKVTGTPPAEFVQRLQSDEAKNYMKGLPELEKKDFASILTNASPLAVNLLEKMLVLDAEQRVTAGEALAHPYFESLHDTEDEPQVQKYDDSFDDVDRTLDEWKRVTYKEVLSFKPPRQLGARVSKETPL
Procedure: as §1
The inhibitory activities of compounds of the invention against p38MAPKγ (MAPK12: Life Technologies), were evaluated by determining the level of activation/phosphorylation of the target peptide. The enzyme (800 ng/mL, 2.5 μL) was incubated with the test compound (2.5 μL at either 40 μg/mL, 12 μg/mL, 4 μg/mL, 1.2 μg/mL, 0.4 μg/mL, 0.12 μg/mL, 0.04 μg/mL, 0.012 μg/mL, 0.004 μg/mL or 0.0012 μg/mL) for 2 h at RT. The FRET peptides (8 μM, 2.5 μL), and appropriate ATP solution (2.5 μL, 400 μM) were then added to the enzymes/compound mixtures and incubated for 1 h at RT. Development reagent (protease, 5 μL) was added for 1 h prior to detection in a fluorescence microplate reader (EnVision, Perkin Elmer).
as §2

T1 sequence (Q16539 whole entry, canonical isoform): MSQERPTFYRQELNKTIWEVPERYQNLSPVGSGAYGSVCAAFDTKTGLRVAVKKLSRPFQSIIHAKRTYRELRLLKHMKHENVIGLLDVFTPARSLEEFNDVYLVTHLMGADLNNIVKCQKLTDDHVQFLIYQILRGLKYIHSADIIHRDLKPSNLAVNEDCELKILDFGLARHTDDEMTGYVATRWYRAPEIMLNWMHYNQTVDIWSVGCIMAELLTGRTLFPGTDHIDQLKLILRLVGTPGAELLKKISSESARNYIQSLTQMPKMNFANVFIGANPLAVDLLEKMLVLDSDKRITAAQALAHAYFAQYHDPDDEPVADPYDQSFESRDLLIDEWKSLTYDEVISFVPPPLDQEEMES

| IC50 [1] | IC50 (p38MAPKγ (MAPK12)) | Compound |
| --- | --- | --- |
| 435 nM | > 15000 nM | COCC#Cc1cncc(Nc2cc(COc3ccc(NC(=O)Nc4cc(C(C)(C)C)nn4-c4ccc(C)cc4)c4ccccc34)ccn2)n1 [Example 158, 1-(3-(tert-butyl)-1-(p-tolyl)-1H-pyrazol-5-yl)-3-(4-((2-((6-(3-methoxyprop-1-yn-1-yl)pyrazin-2-yl)amino)pyridin-4-yl)methoxy)naphthalen-1-yl)urea] |
| 32 nM | 442 nM | COCCCc1cnc(Nc2cc(COc3ccc(NC(=O)Nc4cc(C(C)(C)C)nn4-c4ccc(C)cc4)c4ccccc34)ccn2)cn1 [Example 188, 1-(3-(tert-butyl)-1-(p-tolyl)-1H-pyrazol-5-yl)-3-(4-((2-((5-(3-methoxypropyl)pyrazin-2-yl)amino)pyridin-4-yl)methoxy)naphthalen-1-yl)urea] |
| 15 nM | 95 nM | Cc1cccc(-n2nc(C(C)(C)C)cc2NC(=O)Nc2ccc(OCc3ccnc(Nc4cnc(C(=O)NCCCO)cn4)c3)c3ccccc23)c1 [Example 231, 5-((4-(((4-(3-(3-(tert-butyl)-1-(m-tolyl)-1H-pyrazol-5-yl)ureido)naphthalen-1-yl)oxy)methyl)pyridin-2-yl)amino)-N-(3-hydroxypropyl) pyrazine-2-carboxamide] |
| 18 nM | > 14000 nM | COc1ccc(-n2nc(C(C)(C)C)cc2NC(=O)Nc2ccc(OCc3ccnc(Nc4cnc(C(=O)N5CCCC5)cn4)c3)c3ccccc23)cn1 [Example 219, 1-(3-(tert-butyl)-1-(6-methoxypyridin-3-yl)-1H-pyrazol-5-yl)-3-(4-((2-((5-(pyrrolidine-1-carbonyl)pyrazin-2-yl)amino)pyridin-4-yl)methoxy)naphthalen-1-yl)urea] |
| 15 nM | 401 nM | COc1cccc(-n2nc(C(C)(C)C)cc2NC(=O)Nc2ccc(OCc3ccnc(Nc4cnc(C(=O)N5CCCC5)cn4)c3)c3ccccc23)c1 [Example 216, 1-(3-(tert-butyl)-1-(3-methoxyphenyl)-1H-pyrazol-5-yl)-3-(4-((2-((5-(pyrrolidine-1-carbonyl)pyrazin-2-yl)amino)pyridin-4-yl)methoxy)naphthalen-1-yl)urea] |
|  | 117 nM | COC1CCN(CCNC(=O)c2cnc(Nc3cc(COc4ccc(NC(=O)Nc5cc(C(C)(C)C)nn5-c5ccc(C)cc5)c5ccccc45)ccn3)cn2)CC1 [Example 92] |
|  | 116 nM | Cc1ccc(-n2nc(C(C)(C)C)cc2NC(=O)Nc2ccc(OCc3ccnc(Nc4cnc(C(=O)NCCCN5CCOCC5)cn4)c3)c3ccccc23)cc1 [Example 279, 5-((4-(((4-(3-(3-(tert-butyl)-1-(p-tolyl)-1H-pyrazol-5-yl)ureido)naphthalen-1-yl)oxy)methyl)pyridin-2-yl)amino)-N-(3-morpholino-propyl)pyrazine-2-carboxamide] |
|  | 108 nM | CCN1CCN(C(=O)c2cnc(Nc3cc(COc4ccc(NC(=O)Nc5cc(C(C)(C)C)nn5-c5ccc(C)cc5)c5ccccc45)ccn3)cn2)CC1 [Example 271, 1-(3-(tert-butyl)-1-(p-tolyl)-1H-pyrazol-5-yl)-3-(4-((2-((5-(4-ethylpiperazine-1-carbonyl)pyrazin-2-yl)amino)pyridin-4-yl)methoxy)naphthalen-1-yl)urea] |
|  | > 12800 nM | Cc1ccc(-n2nc(C(C)(C)C)cc2NC(=O)Nc2ccc(OCc3ccnc(Nc4cnc(C(=O)NC(C)(C)CN5CCOCC5)cn4)c3)c3ccccc23)cc1 [Example 287, 5-((4-(((4-(3-(3-(tert-butyl)-1-(p-tolyl)-1H-pyrazol-5-yl)ureido)naphthalen-1-yl)oxy)methyl)pyridin-2-yl)amino)-N-(2-methyl-1-morpholinopropan-2-yl) pyrazine-2-carboxamide] |
|  | > 15500 nM | CCCc1cncc(Nc2cc(COc3ccc(NC(=O)Nc4cc(C(C)(C)C)nn4-c4cccc(F)c4)c4ccccc34)ccn2)n1 [Example 255, 1-(3-(tert-butyl)-1-(3-fluoro-phenyl)-1H-pyrazol-5-yl)-3-(4-((2-((6-propylpyrazin-2-yl)amino)pyridin-4-yl)methoxy)naphthalen-1-yl) urea] |
|  | 31 nM | Cc1ccc(-n2nc(C(C)(C)C)cc2NC(=O)Nc2ccc(OCc3ccnc(Nc4cnc(CN5CCN(C)CC5)cn4)c3)c3ccccc23)cc1 [Example 277, 1-(3-(tert-butyl)-1-(p-tolyl)-1H-pyrazol-5-yl)-3-(4-((2-((5-((4-methylpiperazin-1-yl)methyl)pyrazin-2-yl)amino)pyridin-4-yl)methoxy)naphthalen-1-yl)urea] |
|  | 46 nM | Cc1ccc(-n2nc(C(C)(C)C)cc2NC(=O)Nc2ccc(OCc3ccnc(Nc4cnc(C(=O)N[C@@H]5CCN(C)C5)cn4)c3)c3ccccc23)cc1 [Example 82] |
|  | 13 nM | Cc1ccc(-n2nc(C(C)(C)C)cc2NC(=O)Nc2ccc(OCc3ccnc(Nc4cnc(C(=O)N5CCCN(C)CC5)cn4)c3)c3ccccc23)cc1 [Example 274, 1-(3-(tert-butyl)-1-(p-tolyl)-1H-pyrazol-5-yl)-3-(4-((2-((5-(4-methyl-1,4-diazepane-1-carbonyl)pyrazin-2-yl)amino)pyridin-4-yl)methoxy)naphthalen-1-yl)urea] |
|  | 197 nM | Cc1ccc(-n2nc(C(C)(C)C)cc2NC(=O)Nc2ccc(OCc3ccnc(Nc4cnc(C(=O)N[C@@H](C)CN5CCOCC5)cn4)c3)c3ccccc23)cc1 [Example 278, (S)-5-((4-(((4-(3-(3-(tert-butyl)-1-(p-tolyl)-1H-pyrazol-5-yl)ureido)naphthalen-1-yl)oxy)methyl)pyridin-2-yl)amino)-N-(1-morpholinopropan-2-yl) pyrazine-2-carboxamide] |
|  | 233 nM | Cc1ccc(-n2nc(C(C)(C)C)cc2NC(=O)Nc2ccc(OCc3ccnc(Nc4cnc(C(=O)N[C@H]5CCCN(C)C5)cn4)c3)c3ccccc23)cc1 [Example 88] |
|  | 269 nM | Cc1ccc(-n2nc(C(C)(C)C)cc2NC(=O)Nc2ccc(OCc3ccnc(Nc4cnc(C(=O)NCCN5CCC(F)CC5)cn4)c3)c3ccccc23)cc1 [Example 96] |
|  | 166 nM | Cc1ccc(-n2nc(C(C)(C)C)cc2NC(=O)Nc2ccc(OCc3ccnc(Nc4cnc(C(=O)NCCN5C[C@@H](C)O[C@@H](C)C5)cn4)c3)c3ccccc23)cc1 [Example 85] |
|  | 5.8 nM | Cc1ccc(-n2nc(C(C)(C)C)cc2NC(=O)Nc2ccc(OCc3ccnc(Nc4cncc(C5CCN(C)CC5)n4)c3)c3ccccc23)cc1 [Example 286, 1-(3-(tert-butyl)-1-(p-tolyl)-1H-pyrazol-5-yl)-3-(4-((2-((6-(1-methylpiperidin-4-yl)pyrazin-2-yl)amino)pyridin-4-yl)methoxy)naphthalen-1-yl)urea] |
|  | 31 nM | Cc1ccc(-n2nc(C(C)(C)C)cc2NC(=O)Nc2ccc(OCc3ccnc(Nc4cnc(C(=O)NCCCN5CCN(C)CC5)cn4)c3)c3ccccc23)cc1 [Example 280, 5-((4-(((4-(3-(3-(tert-butyl)-1-(p-tolyl)-1H-pyrazol-5-yl)ureido)naphthalen-1-yl)oxy)methyl)pyridin-2-yl)amino)-N-(3-(4-methyl-piperazin-1-yl)propyl) pyrazine-2-carboxamide] |
|  | 19 nM | Cc1ccc(-n2nc(C(C)(C)C)cc2NC(=O)Nc2ccc(OCc3ccnc(Nc4cnc(C(=O)NCCN5CCCC5)cn4)c3)c3ccccc23)cc1 [Example 86] |
|  | 67 nM | Cc1ccc(-n2nc(C(C)(C)C)cc2NC(=O)Nc2ccc(OCc3ccnc(Nc4cnc(C(=O)NCCN5CCC(O)CC5)cn4)c3)c3ccccc23)cc1 [Example 84] |
|  | 63 nM | Cc1ccc(-n2nc(C(C)(C)C)cc2NC(=O)Nc2ccc(OCc3ccnc(Nc4cnc(C(=O)NC[C@H](O)CN5CCOCC5)cn4)c3)c3ccccc23)cc1 [Example 87] |
|  | > 15400 nM | CC(C)(C)c1cc(NC(=O)Nc2ccc(OCc3ccnc(Nc4cnc(CO)cn4)c3)c3ccccc23)n(-c2cccc(Cl)c2)n1 [Example 256, 1-(3-(tert-butyl)-1-(3-chloro-phenyl)-1H-pyrazol-5-yl)-3-(4-((2-((5-(hydroxymethyl)pyrazin-2-yl)amino)pyridin-4-yl)methoxy)naphthalen-1-yl)urea] |
